Results as given in patent US9957268B2, “1H-pyrrolo[2,3,c]pyridin-7(6H)-ones and pyrazolo[3,4-c]pyridin-7(6H)-ones as inhibitors of BET proteins” (Incyte Corporation, priority 2014, dated 2018).

Columns and labels:
[1] = molecular target: BRD4-BD2 (Homo sapiens (Human), UniProt O60885); experiment: BRD4 AlphaScreen assay (BRD4-BD2); format: binding; details: biotin-labeled tetra-acetylated histone H4 peptide
Method in brief: (§1)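 AlphaScreen displacement at room temperature: 75 min with biotin-H4Ac4 peptide (50 nM) and sub-nanomolar BRD4-BD1 or BD2, then 75 min dark incubation with donor/acceptor beads (2-4 μg/mL). Buffer Tris-HCl pH 7.5 with Tween-20, BSA, DTT; DMSO 1.25% for BD1, 0.83% for BD2. IC50 by curve fitting.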

[2] = molecular target: BRD4-BD1 (Homo sapiens (Human), UniProt O60885); experiment: BRD4 AlphaScreen assay (BRD4-BD1); format: binding; details: biotin-labeled tetra-acetylated histone H4 peptide
Method in brief: as §1

| IC50 [1] [nM] | IC50 [2] [nM] | Structure (SMILES) |
| --- | --- | --- |
| ≤ 100 | ≤ 100 | CC(C)C1Oc2c(cc(CO)cc2-c2cn(C)c(=O)c3[nH]ccc23)NC1=O (stereo not shown) [Example 36, 6-(hydroxymethyl)-2-isopropyl-8-(6-methyl-7-oxo-6,7-dihydro-1H-pyrrolo[2,3-c]pyridin-4-yl)-2H-1,4-benzoxazin-3(4H)-one] |
| ≤ 100 | ≤ 100 | CCS(=O)(=O)c1cc(-c2cn(C)c(=O)c3[nH]ccc23)c2c(c1)N(C)C(=O)C(C)(C)O2 [Example 76, 6-(ethylsulfonyl)-2,2,4-trimethyl-8-(6-methyl-7-oxo-6,7-dihydro-1H-pyrrolo[2,3-c]pyridin-4-yl)-2H-1,4-benzoxazin-3(4H)-one] |
| ≤ 100 | ≤ 100 | CC(O)c1cc(-c2cn(C)c(=O)c3[nH]ccc23)c2c(c1)N(C)C(=O)C(C)(C)O2 (single isomer, unassigned) [Example 83A, 6-(1-hydroxyethyl)-2,2,4-trimethyl-8-(6-methyl-7-oxo-6,7-dihydro-1H-pyrrolo[2,3-c]pyridin-4-yl)-2H-1,4-benzoxazin-3(4H)-one] |
| ≤ 100 | ≤ 100 | CC(O)c1cc2c(c(-c3cn(C)c(=O)c4[nH]ccc34)c1)OC(C(C)C)C(=O)N2 (stereo not shown) [Example 50, 6-(1-hydroxyethyl)-2-isopropyl-8-(6-methyl-7-oxo-6,7-dihydro-1H-pyrrolo[2,3-c]pyridin-4-yl)-2H-1,4-benzoxazin-3(4H)-one] |
| ≤ 100 | ≤ 100 | Cn1cc(-c2cc(S(C)(=O)=O)cc3c2OC(C)(C)C(=O)N3)c2cc[nH]c2c1=O [Example 45, 2,2-dimethyl-8-(6-methyl-7-oxo-6,7-dihydro-1H-pyrrolo[2,3-c]pyridin-4-yl)-6-(methylsulfonyl)-2H-1,4-benzoxazin-3(4H)-one] |
| ≤ 100 | 100 to 1000 | CC(C)C1Oc2c(cc(-c3ccco3)cc2-c2cn(C)c(=O)c3[nH]ccc23)NC1=O (stereo not shown) [Example 43, 6-(2-furyl)-2-isopropyl-8-(6-methyl-7-oxo-6,7-dihydro-1H-pyrrolo[2,3-c]pyridin-4-yl)-2H-1,4-benzoxazin-3(4H)-one] |
| ≤ 100 | ≤ 100 | CC(O)c1cc2c(c(-c3cn(C)c(=O)c4[nH]ccc34)c1)OC(C)(C)C(=O)N2 (stereo not shown) [Example 81, 6-(1-hydroxyethyl)-2,2-dimethyl-8-(6-methyl-7-oxo-6,7-dihydro-1H-pyrrolo[2,3-c]pyridin-4-yl)-2H-1,4-benzoxazin-3(4H)-one] |
| ≤ 100 | ≤ 100 | CC(C)S(=O)(=O)c1cc2c(c(-c3cn(C)c(=O)c4[nH]ccc34)c1)OC(C)(C)C(=O)N2 [Example 79, 6-(isopropylsulfonyl)-2,2-dimethyl-8-(6-methyl-7-oxo-6,7-dihydro-1H-pyrrolo[2,3-c]pyridin-4-yl)-2H-1,4-benzoxazin-3(4H)-one] |
| ≤ 100 | ≤ 100 | CC(C)C1Oc2c(-c3cn(C)c(=O)c4[nH]ccc34)cc(S(=O)(=O)N(C)C)cc2N(C)C1=O (stereo not shown) [Example 71, 2-isopropyl-N,N,4-trimethyl-8-(6-methyl-7-oxo-6,7-dihydro-1H-pyrrolo[2,3-c]pyridin-4-yl)-3-oxo-3,4-dihydro-2H-1,4-benzoxazine-6-sulfonamide] |
| ≤ 100 | ≤ 100 | CCS(=O)(=O)NCc1cc2c(c(-c3cn(C)c(=O)c4[nH]ccc34)c1)OC(C(C)C)C(=O)N2 (stereo not shown) [Example 39, N-{[2-isopropyl-8-(6-methyl-7-oxo-6,7-dihydro-1H-pyrrolo[2,3-c]pyridin-4-yl)-3-oxo-3,4-dihydro-2H-1,4-benzoxazin-6-yl]methyl}ethanesulfonamide] |
| ≤ 100 | ≤ 100 | CC(C)C1Oc2c(cccc2-c2cn(C)c(=O)c3[nH]ccc23)NC1=O (stereo not shown) [Example 2, 2-isopropyl-8-(6-methyl-7-oxo-6,7-dihydro-1H-pyrrolo[2,3-c]pyridin-4-yl)-2H-1,4-benzoxazin-3(4H)-one] |
| ≤ 100 | ≤ 100 | CC(O)c1cc(-c2cn(C)c(=O)c3[nH]ccc23)c2c(c1)N(C)C(=O)C(C)(C)O2 (stereo not shown) [Example 83, 6-(1-hydroxyethyl)-2,2,4-trimethyl-8-(6-methyl-7-oxo-6,7-dihydro-1H-pyrrolo[2,3-c]pyridin-4-yl)-2H-1,4-benzoxazin-3(4H)-one] |

The remaining lines, values behind:

| Structure (SMILES) | IC50 [1] [nM] | IC50 [2] [nM] |
| --- | --- | --- |
| Cn1cc(-c2cccc3c2OC2(CC2)C(=O)N3)c2cc[nH]c2c1=O [Example 30, 8-(6-methyl-7-oxo-6,7-dihydro-1H-pyrrolo[2,3-c]pyridin-4-yl)spiro[1,4-benzoxazine-2,1′-cyclopropan]-3(4H)-one] | ≤ 100 | ≤ 100 |
| Cn1cc(-c2cc(S(C)(=O)=O)cc3c2NC2(CCCC2)C(=O)N3)c2cc[nH]c2c1=O [Example 59, 8′-(6-methyl-7-oxo-6,7-dihydro-1H-pyrrolo[2,3-c]pyridin-4-yl)-6′-(methylsulfonyl)-1′,4′-dihydro-3′H-spiro[cyclopentane-1,2′-quinoxalin]-3′-one] | ≤ 100 | ≤ 100 |
| CCC1Oc2c(cccc2-c2cn(C)c(=O)c3[nH]ccc23)NC1=O (stereo not shown) [Example 4, 2-ethyl-8-(6-methyl-7-oxo-6,7-dihydro-1H-pyrrolo[2,3-c]pyridin-4-yl)-2H-1,4-benzoxazin-3(4H)-one] | ≤ 100 | 100 to 1000 |
| CC(C)C1Oc2c(cc(S(C)(=O)=O)cc2-c2cn(C)c(=O)c3[nH]ncc23)NC1=O (stereo not shown) [Example 84, 2-isopropyl-8-(6-methyl-7-oxo-6,7-dihydro-1H-pyrazolo[3,4-c]pyridin-4-yl)-6-(methylsulfonyl)-2H-1,4-benzoxazin-3(4H)-one] | ≤ 100 | ≤ 100 |
| CC(C)C1Oc2c(cc(S(C)(=O)=O)cc2-c2cn(C)c(=O)c3[nH]ccc23)NC1=O (single isomer, unassigned) [Example 44A, 2-isopropyl-8-(6-methyl-7-oxo-6,7-dihydro-1H-pyrrolo[2,3-c]pyridin-4-yl)-6-(methylsulfonyl)-2H-1,4-benzoxazin-3(4H)-one] | ≤ 100 | ≤ 100 |
| Cn1cc(-c2cccc3c2NC(C)(C)C(=O)N3)c2cc[nH]c2c1=O [Example 32, 3,3-dimethyl-5-(6-methyl-7-oxo-6,7-dihydro-1H-pyrrolo[2,3-c]pyridin-4-yl)-3,4-dihydroquinoxalin-2(1H)-one] | ≤ 100 | 100 to 1000 |
| Cn1cc(-c2cccc3c2OC(C2CC2)C(=O)N3)c2cc[nH]c2c1=O (stereo not shown) [Example 6, 2-cyclopropyl-8-(6-methyl-7-oxo-6,7-dihydro-1H-pyrrolo[2,3-c]pyridin-4-yl)-2H-1,4-benzoxazin-3(4H)-one] | ≤ 100 | ≤ 100 |
| COc1cc2c(c(-c3cn(C)c(=O)c4[nH]ncc34)c1)OC(C1CCCC1)C(=O)N2 (stereo not shown) [Example 42, 2-Cyclopentyl-6-methoxy-8-(6-methyl-7-oxo-6,7-dihydro-1H-pyrazolo[3,4-c]pyridin-4-yl)-2H-1,4-benzoxazin-3(4H)-one] | ≤ 100 | ≤ 100 |
| CC(=O)c1cc2c(c(-c3cn(C)c(=O)c4[nH]ccc34)c1)OC(C)(C)C(=O)N2 [Example 80, 6-acetyl-2,2-dimethyl-8-(6-methyl-7-oxo-6,7-dihydro-1H-pyrrolo[2,3-c]pyridin-4-yl)-2H-1,4-benzoxazin-3(4H)-one] | ≤ 100 | ≤ 100 |
| COc1cc(-c2cn(C)c(=O)c3[nH]ccc23)c2c(c1)N(CC(=O)N1CCN(C)CC1)C(=O)C(C(C)C)O2 (stereo not shown) [Example 14, 2-isopropyl-6-methoxy-8-(6-methyl-7-oxo-6,7-dihydro-1H-pyrrolo[2,3-c]pyridin-4-yl)-4-[2-(4-methylpiperazin-1-yl)-2-oxoethyl]-2H-1,4-benzoxazin-3(4H)-one] | ≤ 100 | 100 to 1000 |
| Cn1cc(-c2cc(S(C)(=O)=O)cc3c2OC(CCO)C(=O)N3)c2cc[nH]c2c1=O (stereo not shown) [Example 48, 2-(2-hydroxyethyl)-8-(6-methyl-7-oxo-6,7-dihydro-1H-pyrrolo[2,3-c]pyridin-4-yl)-6-(methylsulfonyl)-2H-1,4-benzoxazin-3(4H)-one] | ≤ 100 | ≤ 100 |
| COc1cc2c(c(-c3cn(C)c(=O)c4[nH]ccc34)c1)OC(C1CC1)C(=O)N2 (stereo not shown) [Example 23, 2-cyclopropyl-6-methoxy-8-(6-methyl-7-oxo-6,7-dihydro-1H-pyrrolo[2,3-c]pyridin-4-yl)-2H-1,4-benzoxazin-3(4H)-one] | ≤ 100 | ≤ 100 |
| Cn1cc(-c2cccc3c2OC(c2ccccn2)C(=O)N3)c2cc[nH]c2c1=O (stereo not shown) [Example 5, 8-(6-methyl-7-oxo-6,7-dihydro-1H-pyrrolo[2,3-c]pyridin-4-yl)-2-pyridin-2-yl-2H-1,4-benzoxazin-3(4H)-one 2,2,2-trifluoroacetate] | ≤ 100 | 100 to 1000 |
| COc1cc2c(c(-c3cn(C)c(=O)c4[nH]ccc34)c1)OC(c1ccccc1)C(=O)N2 (stereo not shown) [Example 24, 6-methoxy-8-(6-methyl-7-oxo-6,7-dihydro-1H-pyrrolo[2,3-c]pyridin-4-yl)-2-phenyl-2H-1,4-benzoxazin-3(4H)-one] | ≤ 100 | ≤ 100 |
| Cn1cc(-c2cc(S(C)(=O)=O)cc3c2OC2(CC2)C(=O)N3)c2cc[nH]c2c1=O [Example 57, 8-(6-methyl-7-oxo-6,7-dihydro-1H-pyrrolo[2,3-c]pyridin-4-yl)-6-(methylsulfonyl)spiro[1,4-benzoxazine-2,1′-cyclopropan]-3(4H)-one] | ≤ 100 | ≤ 100 |
| Cn1cc(-c2cccc3c2OC(C)(C)C(=O)N3)c2cc[nH]c2c1=O [Example 31, 2,2-dimethyl-8-(6-methyl-7-oxo-6,7-dihydro-1H-pyrrolo[2,3-c]pyridin-4-yl)-2H-1,4-benzoxazin-3(4H)-one] | ≤ 100 | ≤ 100 |
| Cn1cc(-c2cc(S(C)(=O)=O)cc3c2NC2(CCC2)C(=O)N3)c2cc[nH]c2c1=O [Example 62, 8′-(6-methyl-7-oxo-6,7-dihydro-1H-pyrrolo[2,3-c]pyridin-4-yl)-6′-(methylsulfonyl)-1′,4′-dihydro-3′H-spiro[cyclobutane-1,2′-quinoxalin]-3′-one] | ≤ 100 | ≤ 100 |
